These results are taken from ChEMBL document CHEMBL5724914, “Linking interpersonal differences in gut microbiota composition and drug biotransformation activity” (2024).

Series [1] in a line: The drug is tested on Z-010 corresponding to metagenome with ENA study accession number: PRJEB37062 and ENA sample accession number: ERS12561810 for biotransformation under anaerobic condition. The drug concentrations were measured over 9 timepoints collected between 0 and 24 hours of incubation by liquid-chromatography-coupled mass spectrometry (LC–MS). Conditions: 2 µM.
The conditions of series [2]: human gut metagenome, 24 h, 2 µM.
For series [3] the following is noted: human gut metagenome, 24 h, 2 µM. This is another data set of the same source.
For series [4] the following is noted: human gut metagenome, 24 h, 2 µM. This is another data set of the same source.
Series [5] can be described thus: The drug is tested on Z-029 corresponding to rat gut metagenome with ENA study accession number: PRJEB37062 and ENA sample accession number: ERS12561828 for biotransformation under anaerobic condition. The drug concentrations were measured over 9 timepoints collected between 0 and 24 hours of incubation by liquid-chromatography-coupled mass spectrometry (LC–MS). Conditions: 2 µM.

Series [6] can be described thus: The drug is tested on Z-004 corresponding to metagenome with ENA study accession number: PRJEB37062 and ENA sample accession number: ERS12561804 for biotransformation under anaerobic condition. The drug concentrations were measured over 9 timepoints collected between 0 and 24 hours of incubation by liquid-chromatography-coupled mass spectrometry (LC–MS). Conditions: 2 µM.

For series [7] the following is noted: human gut metagenome, 24 h, 2 µM. The source holds these as a separate data set.
A short description of series [8]: The drug is tested on Z-021 corresponding to metagenome with ENA study accession number: PRJEB37062 and ENA sample accession number: ERS12561820 for biotransformation under anaerobic condition. The drug concentrations were measured over 9 timepoints collected between 0 and 24 hours of incubation by liquid-chromatography-coupled mass spectrometry (LC–MS). As to conditions: 2 µM.

For series [9] the following is noted: human gut metagenome, 24 h, 2 µM. The source holds these as a separate data set.
A short description of series [10]: The drug is tested on WLS-082 corresponding to human gut metagenome with ENA study accession number: PRJEB37062 and ENA sample accession number: ERS12561751 for biotransformation under anaerobic condition. The drug concentrations were measured over 9 timepoints collected between 0 and 24 hours of incubation by liquid-chromatography-coupled mass spectrometry (LC–MS). Conditions: 2 µM.

The conditions of series [11]: human gut metagenome, 24 h, 2 µM. The source holds these as a separate data set.
For series [12] the following is noted: human gut metagenome, 24 h, 2 µM. This is another data set of the same source.
Series [13] is described as follows: The drug is tested on Z-016 corresponding to mouse gut metagenome with ENA study accession number: PRJEB37062 and ENA sample accession number: ERS12561815 for biotransformation under anaerobic condition. The drug concentrations were measured over 9 timepoints collected between 0 and 24 hours of incubation by liquid-chromatography-coupled mass spectrometry (LC–MS). Conditions: 2 µM.

The nature of series [14]: The drug is tested on Z-013 corresponding to rabbit gut metagenome with ENA study accession number: PRJEB37062 and ENA sample accession number: ERS12561813 for biotransformation under anaerobic condition. The drug concentrations were measured over 9 timepoints collected between 0 and 24 hours of incubation by liquid-chromatography-coupled mass spectrometry (LC–MS). Conditions: 2 µM.

Series [15] is described as follows: The drug is tested on Z-006 corresponding to mouse gut metagenome with ENA study accession number: PRJEB37062 and ENA sample accession number: ERS12561806 for biotransformation under anaerobic condition. The drug concentrations were measured over 9 timepoints collected between 0 and 24 hours of incubation by liquid-chromatography-coupled mass spectrometry (LC–MS). As to conditions: 2 µM.

The nature of series [16]: The drug is tested on Z-030 corresponding to mouse gut metagenome with ENA study accession number: PRJEB37062 and ENA sample accession number: ERS12561829 for biotransformation under anaerobic condition. The drug concentrations were measured over 9 timepoints collected between 0 and 24 hours of incubation by liquid-chromatography-coupled mass spectrometry (LC–MS). As to conditions: 2 µM.

Series [17] in a line: The drug is tested on WLS-170 corresponding to human gut metagenome with ENA study accession number: PRJEB37062 and ENA sample accession number: ERS12561762 for biotransformation under anaerobic condition. The drug concentrations were measured over 9 timepoints collected between 0 and 24 hours of incubation by liquid-chromatography-coupled mass spectrometry (LC–MS). As to conditions: 2 µM.

The conditions of series [18]: human gut metagenome, 24 h, 2 µM. The source holds these as a separate data set.
A short description of series [19]: The drug is tested on WLS-240 corresponding to human gut metagenome with ENA study accession number: PRJEB37062 and ENA sample accession number: ERS12561773 for biotransformation under anaerobic condition. The drug concentrations were measured over 9 timepoints collected between 0 and 24 hours of incubation by liquid-chromatography-coupled mass spectrometry (LC–MS). Conditions: 2 µM.

The conditions of series [20]: human gut metagenome, 24 h, 2 µM. The source holds these as a separate data set.
Further: call rule not given here.

For the molecule `Cc1cn([C@H]2C[C@H](N=[N+]=[N-])[C@@H](CO)O2)c(=O)[nH]c1=O` [ZIDOVUDINE], the “Bacterial Biotransformation” value in series [1] was “Compound NOT metabolized”; in [2], “Compound NOT metabolized”; in series [3] it was “Compound NOT metabolized”; in [4] it was “Compound NOT metabolized”; in [5], “Compound metabolized”; in [6] it was “Compound metabolized”. For the same molecule, the “Bacterial Biotransformation” value in [7] is listed as “Compound NOT metabolized”; in series [8], “Compound NOT metabolized”; in series [9], “Compound metabolized”; in [10], “Compound NOT metabolized”; in series [11] it was “Compound NOT metabolized”; in [12], “Compound NOT metabolized”. In addition, the “Bacterial Biotransformation” value was “Compound NOT metabolized” in series [13]; “Compound NOT metabolized” in series [14]; “Compound NOT metabolized” in series [15]; “Compound metabolized” in [16]; “Compound NOT metabolized” in series [17]; “Compound NOT metabolized” in [18]. Also, the “Bacterial Biotransformation” value in series [19] was “Compound NOT metabolized”; in series [20] it was “Compound metabolized”.
